Assay results published in patent US20210060033A1, “ORALLY ADMINISTERED COMBINATIONS OF BETA-LACTAM ANTIBIOTICS AND AVIBACTAM DERIVATIVES FOR TREATING BACTERIAL INFECTIONS” (priority 2019, published 2021).
Structures can show the parent of a compound that is named as a salt.

Key:
[1] = tested on: pAmpC (PlasAmpC) isolates (n = 20); assay type: cell-based, Enterobacteriaceae; conditions: pAmpC n = 20; avibactam or clavulanic acid fixed at 4 μg/mL in combinations
[2] = tested on: OXA-positive isolates (n = 22); assay type: cell-based, Enterobacteriaceae; conditions: OXA n = 22; avibactam or clavulanic acid fixed at 4 μg/mL in combinations
314 Enterobacteriaceae = assay type: cell-based; conditions: all isolates combined; avibactam at a fixed concentration of 4 μg/mL
[3] = tested on: ESBL-positive isolates (n = 28); assay type: cell-based, Enterobacteriaceae; conditions: ESBL n = 28; avibactam or clavulanic acid fixed at 4 μg/mL in combinations
[4] = tested on: KPC-positive isolates (n = 23); assay type: cell-based, Enterobacteriaceae; conditions: KPC n = 23; avibactam or clavulanic acid fixed at 4 μg/mL in combinations
E. cloacae 4184 = assay: One-compartment in vitro infection (chemostat) model, E. cloacae 4184; assay type: cell-based, Enterobacter cloacae; conditions: for Average Log10 CFU/mL (+/− Range of Data), 5 × Ceftibuten + Avibactam at 4 mg/L MIC: Ceftibuten 400 mg q8h
E. coli ATCC 25922 = assay: One-compartment in vitro infection (chemostat) model, E. coli ATCC 25922; assay type: cell-based, Escherichia coli
[5] = tested on: ESBL-, KPC-, and OXA-positive isolates; assay type: cell-based, Enterobacteriaceae; conditions: avibactam 4 μg/mL
E. coli 136-4643 = assay: One-compartment in vitro infection (chemostat) model, E. coli 136-4643; assay type: cell-based, Escherichia coli; conditions: E. coli 4643; for Average Log10 CFU/mL (+/− Range of Data), 5 × Ceftibuten + Avibactam at 4 mg/L MIC: Ceftibuten 400 mg q8h
[6] = tested on: pooled Enterobacteriaceae isolates; assay: Pharmacokinetic-pharmacodynamic analyses (Hill-type models) of the 400 mg ceftibuten dose-ranging studies; assay type: cell-based; conditions: 400 mg of ceftibuten, 24 hours
Description: Data from the avibactam dose-ranging studies, in combination with 400 mg q8h of ceftibuten, were evaluated using Hill models and non-linear least squares regression. All data was weighted using the inverse of the estimated measurement variance. […] The relationships between change in log10 CFU/mL and percent time above avibactam concentration thresholds (Ct) ranging from 0.125 mg/L to 2 mg/L were also evaluated.

[7] = Sprague-Dawley rats; cited from earlier work
[8] = MIC determined using 4 mg/L of avibactam
[9] = MIC determined using 8 mg/L of avibactam
[10] = MIC determined using a 1:1 ratio of ceftibuten:avibactam

SMILES: Nc1nc(/C(=C/CC(=O)O)C(=O)N[C@@H]2C(=O)N3C(C(=O)O)=CCS[C@H]23)cs1 [ceftibuten, (6R,7R)-7-((Z)-2-(2-amino-4-thiazolyl)-4-carboxycrotonamido)-8-oxo-5-thia-1-azabicyclo(4.2.0)oct-2-ene-2-carboxylic acid]
- Estimated MIC90 [1]: >32 µg/mL
- Estimated MIC90 [2]: >32 µg/mL
- MIC90 with addition of avibactam (314 Enterobacteriaceae): 0.5 µg/mL
- Estimated MIC90 [3]: >32 µg/mL
- Estimated MIC90 [4]: >32 µg/mL
- Average Log10 CFU/mL (+/− Range of Data), 5 × Ceftibuten + Avibactam at 4 mg/L MIC (E. cloacae 4184; 0 h): 0.99 (0.31) Log10 CFU/mL
- Average Log10 CFU/mL (+/− Range of Data), 5 × Ceftibuten + Avibactam at 4 mg/L MIC (E. cloacae 4184; 24 h): 1.68 (0.20) Log10 CFU/mL
- bacterial burden response over 24 hours (E. cloacae 4184; ceftibuten 200 mg q8h monotherapy): no activity
- bacterial burden response over 24 hours (E. cloacae 4184; ceftibuten 400 mg q8h monotherapy): did not reduce the bacterial burden
- Reduction (bacterial burden) (E. coli ATCC 25922; Ceftibuten 267 mg TID, Avibactam 0 mg TID): 1-log
- ceftibuten % T>MIC required to achieve net bacterial stasis (E. coli ATCC 25922; administered every 8 hours): approximately 45%
- bacterial burden response at 24 hours (E. coli ATCC 25922; ceftibuten 3.75 mg to 75 mg q8h): net bacterial stasis
- bacterial burden response at 24 hours (E. coli ATCC 25922; ceftibuten 12.5 mg q8h): treatment failure
- bacterial burden response at 24 hours (E. coli ATCC 25922; ceftibuten 100 mg and 267 mg q8h): reductions in bacterial burden
- reduction of MIC90 values by addition of avibactam [5]: at least five doubling dilutions
- Average Log10 CFU/mL (+/− Range of Data), 5 × Ceftibuten + Avibactam at 4 mg/L MIC (E. coli 136-4643; 0 h): 0 (0) Log10 CFU/mL
- Average Log10 CFU/mL (+/− Range of Data), 5 × Ceftibuten + Avibactam at 4 mg/L MIC (E. coli 136-4643; 24 h): 0 (0) Log10 CFU/mL
- bacterial burden response over 24 hours (E. coli 136-4643; ceftibuten 400 mg q8h monotherapy, first 4 hours, regrowth matching control by 12 hours): slight initial reduction in bacterial burden

SMILES: NC(=O)[C@@H]1CC[C@@H]2CN1C(=O)N2OS(=O)(=O)O [avibactam, [2S,5R]-2-carbamoyl-7-oxo-1,6-diazabicyclo[3.2.1]octan-6-yl hydrogen sulfate]
- Avibactam free-drug plasma % T > Concentration threshold value, target 1-log ([6]; Ct 0.5 mg/L of avibactam): 97.6%
- Avibactam free-drug plasma % T > Concentration threshold value, target 2-log ([6]; Ct 0.5 mg/L of avibactam): 98.2%
- Avibactam free-drug plasma % T > Concentration threshold value, target Stasis ([6]; Ct 0.5 mg/L of avibactam): 96.9%
- Avibactam free-drug plasma % T > Concentration threshold value, target 1-log ([6]; Ct 1 mg/L of avibactam): 85.2%
- Avibactam free-drug plasma % T > Concentration threshold value, target 2-log ([6]; Ct 1 mg/L of avibactam): 93.6%
- Avibactam free-drug plasma % T > Concentration threshold value, target Stasis ([6]; Ct 1 mg/L of avibactam): 76.0%
- Avibactam free-drug plasma % T > MIC value, target 1-log [6, 8]: 58.0%
- Avibactam free-drug plasma % T > MIC value, target 2-log [6, 8]: 66.3%
- Avibactam free-drug plasma % T > MIC value, target Stasis [6, 8]: 53.2%
- Avibactam free-drug plasma AUC:MIC value, target 1-log [6, 8]: 30.8
- Avibactam free-drug plasma AUC:MIC value, target 2-log [6, 8]: 34.2
- Avibactam free-drug plasma AUC:MIC value, target Stasis [6, 8]: 28.7
- Avibactam free-drug plasma % T > MIC value, target 1-log [6, 9]: 79.4%
- Avibactam free-drug plasma % T > MIC value, target 2-log [6, 9]: 80.4%
- Avibactam free-drug plasma % T > MIC value, target Stasis [6, 9]: 78.7%
- Avibactam free-drug plasma AUC:MIC value, target 1-log [6, 9]: 67.0
- Avibactam free-drug plasma AUC:MIC value, target 2-log [6, 9]: 128
- Avibactam free-drug plasma AUC:MIC value, target Stasis [6, 9]: 38.0
- Avibactam free-drug plasma % T > MIC value, target 1-log [6, 10]: 11.1%
- Avibactam free-drug plasma % T > MIC value, target 2-log [6, 10]: 22.7%
- Avibactam free-drug plasma % T > MIC value, target Stasis [6, 10]: 6.8%
- Avibactam free-drug plasma AUC:MIC value, target 1-log [6, 10]: 15.4
- Avibactam free-drug plasma AUC:MIC value, target 2-log [6, 10]: 17.1
- Avibactam free-drug plasma AUC:MIC value, target Stasis [6, 10]: 14.4
- avibactam oral bioavailability (% F) [7]: 1.2 % F
